{"source": "patent EP0162695A1", "about": "“6-Oxygenated-1,3,,4,5-Tetrahydrobenz(cd)indol-4-amines” (SMITHKLINE BEECHAM CORPORATION, priority 1984, dated 1985)", "biological_target": "5-HTl receptor", "assay": "antagonism of the effect of serotonin in an in vitro dog basilar artery preparation", "assay_type": "biochemical", "text": "Also, selective 5-HTl receptor antagonist activity of the compounds of formula (I) may be shown by the ability to antagonize the effect of serotonin in an in vitro dog basilar artery preparation, Peroutka et al, Brain Research 259:327-330 (1983).", "data": [{"smiles": "COc1ccc2[nH]cc3c2c1CC(N)C3", "note": "(stereo not shown) [example 1, 6-methoxy-l,3,4,5-tetrahydrobenz[cd]indole-4-amine hemioxalate]", "values": [{"measurement": "Kb", "value": 463, "unit": "nM"}]}]}
